Measured values as given in patent US11147272B2, “Pyridone compounds and agricultural and horticultural fungicides comprising the same as active ingredients” (MITSUI CHEMICALS AGRO, INC., priority 2017, dated 2021).

What was measured:
[1] = tested on: Blumeria graminis f. sp. hordei; assay: Test Example D: Powdery mildew on barley; details: 250 ppm drug solution sprayed on test plant
Experimental: Seeds of a test plant (barley variety: Akashinriki) were planted and cultivated until the first leaves appeared. In the test, the inventive compounds were dissolved into dimethyl sulfoxide-methanol mixture solution (volume ratio: 9/1), and the resultant solutions were diluted with well water to a concentration of 250 ppm to obtain the drug solutions. The drug solutions were sprayed to the test plant (2.5 ml/pot). After the drug solutions dried, conidia of Blumeria graminis f. sp. hordei were inoculated to the plant by shaking off. The degrees of disease development were investigated 6 to 10 days after the inoculation, and the effectiveness of the drug solutions was evaluated.
In Test Examples described above, the degrees of disease development were evaluated in increments of 0.05 from 0 (as no incidence of disease) to 3 (as the degree of disease development in an untreated plant group). Further, control values were calculated using the following equation based on the degree of disease development.
n=Degree of disease development in each treated group

Botrytis cinerea = assay: Test Example B: Gray mold on tomato; details: 250 ppm drug solution sprayed on test plant
Alternaia brassicicola = assay: Test Example C: Alternaria sooty spot on cabbage; type: in vivo; details: 250 ppm drug solution sprayed on test plant
Text: Seeds of a test plant (cabbage variety: Shikidori) were planted and cultivated until the cotyledons extended.
<Control Value> Control value=100{1−(n/3)}

Puccinia recondita = assay: Test Example E: Brown rust on wheat; type: in vivo; details: 250 ppm drug solution sprayed on test plant
Plasmopara viticola = assay: Test Example G: Downy mildew on vine; details: 250 ppm drug solution sprayed (2.5 ml/pot), grape Neomuscat, 7 to 10 days after inoculation
[2] = tested on: Colletotrichum orbiculare; assay: Test Example H: Anthracnose on cucumber; details: 250 ppm drug solution sprayed (2.5 ml/pot), cucumber Sagami Hanjiro, 6 to 10 days after inoculation
Phytophthora infestans = assay: whole plant or invertebrate; type: in vivo; details: 250 ppm drug solution sprayed on test plant
Magnaporthe grisea = assay: whole plant or invertebrate; type: in vivo; details: 250 ppm drug solution sprayed on test plant

For `CCCc1ccc(=O)n(CC(F)F)c1-c1c(F)cc(F)cc1F` [compound 470], the “Test D control value” [1] was “L (50% or less control value)”, the “Test B control value” (Botrytis cinerea) was “L (50% or less control value)” and the “Test C control value” (Alternaia brassicicola) was “H (more than 50% control value)”. For the same molecule, the “Test E control value” (Puccinia recondita) was “L (50% or less control value)”, the “Test G control value” (Plasmopara viticola) was “L (50% or less control value)” and the “Test H control value” [2] was “H (more than 50% control value)”. The “Test F control value” (Phytophthora infestans) was “L (50% or less control value)” and the “Test A control value” (Magnaporthe grisea) was “L (50% or less control value)”.

For `CCCc1cc(Cl)c(=O)n(CC(F)F)c1-c1c(F)cc(F)cc1F` [compound 471], the “Test D control value” [1] was “H (more than 50% control value)”, the “Test B control value” (Botrytis cinerea) was “H (more than 50% control value)” and the “Test C control value” (Alternaia brassicicola) was “H (more than 50% control value)”. For the same molecule, the “Test E control value” (Puccinia recondita) was “H (more than 50% control value)”, the “Test G control value” (Plasmopara viticola) was “H (more than 50% control value)” and the “Test H control value” [2] was “H (more than 50% control value)”. For the same molecule, the “Test F control value” (Phytophthora infestans) was “L (50% or less control value)” and the “Test A control value” (Magnaporthe grisea) was “H (more than 50% control value)”.

`CCCc1cc(Br)c(=O)n(CC(F)F)c1-c1c(F)cc(F)cc1F` [compound 472] was tested, and the “Test D control value” [1] was “H (more than 50% control value)”, the “Test B control value” (Botrytis cinerea) was “H (more than 50% control value)” and the “Test C control value” (Alternaia brassicicola) was “H (more than 50% control value)”. For the same molecule, the “Test E control value” (Puccinia recondita) was “H (more than 50% control value)”, the “Test G control value” (Plasmopara viticola) was “H (more than 50% control value)” and the “Test H control value” [2] was “H (more than 50% control value)”. For the same molecule, the “Test F control value” (Phytophthora infestans) was “L (50% or less control value)” and the “Test A control value” (Magnaporthe grisea) was “H (more than 50% control value)”.

`CCCc1cc(I)c(=O)n(CC(F)F)c1-c1c(F)cc(F)cc1F` [compound 473] was tested, and the “Test D control value” [1] was “H (more than 50% control value)”, the “Test B control value” (Botrytis cinerea) was “H (more than 50% control value)” and the “Test C control value” (Alternaia brassicicola) was “H (more than 50% control value)”. For the same molecule, the “Test E control value” (Puccinia recondita) was “H (more than 50% control value)”, the “Test G control value” (Plasmopara viticola) was “L (50% or less control value)” and the “Test H control value” [2] was “L (50% or less control value)”. For the same molecule, the “Test F control value” (Phytophthora infestans) was “L (50% or less control value)” and the “Test A control value” (Magnaporthe grisea) was “H (more than 50% control value)”.

`CCCc1ccc(=O)n(CC(F)F)c1-c1c(F)cc(OC)cc1F` [compound 474] was tested, and the “Test D control value” [1] was “H (more than 50% control value)”, the “Test B control value” (Botrytis cinerea) was “H (more than 50% control value)” and the “Test C control value” (Alternaia brassicicola) was “H (more than 50% control value)”. The “Test E control value” (Puccinia recondita) was “H (more than 50% control value)”, the “Test G control value” (Plasmopara viticola) was “H (more than 50% control value)” and the “Test H control value” [2] was “H (more than 50% control value)”. The “Test F control value” (Phytophthora infestans) was “L (50% or less control value)” and the “Test A control value” (Magnaporthe grisea) was “H (more than 50% control value)”.

With `CCCc1cc(Cl)c(=O)n(CC(F)F)c1-c1c(F)cc(OC)cc1F` [compound 475] the “Test D control value” [1] was “H (more than 50% control value)”, the “Test B control value” (Botrytis cinerea) was “H (more than 50% control value)” and the “Test C control value” (Alternaia brassicicola) was “H (more than 50% control value)”. For the same molecule, the “Test E control value” (Puccinia recondita) was “H (more than 50% control value)”, the “Test G control value” (Plasmopara viticola) was “H (more than 50% control value)” and the “Test H control value” [2] was “H (more than 50% control value)”. The “Test F control value” (Phytophthora infestans) was “L (50% or less control value)” and the “Test A control value” (Magnaporthe grisea) was “H (more than 50% control value)”.

In the case of `CCCc1cc(Br)c(=O)n(CC(F)F)c1-c1c(F)cc(OC)cc1F` [compound 476], the “Test D control value” [1] is reported as “H (more than 50% control value)”, the “Test B control value” (Botrytis cinerea) is reported as “H (more than 50% control value)” and the “Test C control value” (Alternaia brassicicola) is reported as “H (more than 50% control value)”. For the same molecule, the “Test E control value” (Puccinia recondita) was “H (more than 50% control value)”, the “Test G control value” (Plasmopara viticola) was “H (more than 50% control value)” and the “Test H control value” [2] was “H (more than 50% control value)”. The “Test F control value” (Phytophthora infestans) was “L (50% or less control value)” and the “Test A control value” (Magnaporthe grisea) was “H (more than 50% control value)”.

With `CCCc1cc(I)c(=O)n(CC(F)F)c1-c1c(F)cc(OC)cc1F` [compound 477] the “Test D control value” [1] was “H (more than 50% control value)”, the “Test B control value” (Botrytis cinerea) was “H (more than 50% control value)” and the “Test C control value” (Alternaia brassicicola) was “H (more than 50% control value)”. The “Test E control value” (Puccinia recondita) was “H (more than 50% control value)”, the “Test G control value” (Plasmopara viticola) was “L (50% or less control value)” and the “Test H control value” [2] was “H (more than 50% control value)”. The “Test F control value” (Phytophthora infestans) was “L (50% or less control value)” and the “Test A control value” (Magnaporthe grisea) was “H (more than 50% control value)”.

`CCn1c(-c2c(F)cc(F)cc2F)c(CO)ccc1=O` [compound 478] was tested, and the “Test D control value” [1] was “H (more than 50% control value)”, the “Test B control value” (Botrytis cinerea) was “L (50% or less control value)” and the “Test C control value” (Alternaia brassicicola) was “L (50% or less control value)”. The “Test E control value” (Puccinia recondita) was “L (50% or less control value)”, the “Test G control value” (Plasmopara viticola) was “L (50% or less control value)” and the “Test H control value” [2] was “L (50% or less control value)”. For the same molecule, the “Test F control value” (Phytophthora infestans) was “L (50% or less control value)” and the “Test A control value” (Magnaporthe grisea) was “L (50% or less control value)”.

With `CCn1c(-c2c(F)cc(F)cc2F)c(C(C)(OC)C(C)C)ccc1=O` (stereo not shown) [compound 479] the “Test D control value” [1] was “H (more than 50% control value)”, the “Test B control value” (Botrytis cinerea) was “H (more than 50% control value)” and the “Test C control value” (Alternaia brassicicola) was “H (more than 50% control value)”. The “Test E control value” (Puccinia recondita) was “H (more than 50% control value)”, the “Test G control value” (Plasmopara viticola) was “H (more than 50% control value)” and the “Test H control value” [2] was “H (more than 50% control value)”. The “Test F control value” (Phytophthora infestans) was “L (50% or less control value)” and the “Test A control value” (Magnaporthe grisea) was “H (more than 50% control value)”.

For `CCC(=O)c1ccc(=O)n(CC)c1-c1c(F)cc(F)cc1F` [compound 480], the “Test D control value” [1] was “H (more than 50% control value)”, the “Test B control value” (Botrytis cinerea) was “H (more than 50% control value)” and the “Test C control value” (Alternaia brassicicola) was “L (50% or less control value)”. The “Test E control value” (Puccinia recondita) was “L (50% or less control value)”, the “Test G control value” (Plasmopara viticola) was “L (50% or less control value)” and the “Test H control value” [2] was “H (more than 50% control value)”. The “Test F control value” (Phytophthora infestans) was “L (50% or less control value)” and the “Test A control value” (Magnaporthe grisea) was “L (50% or less control value)”.

For `CCn1c(-c2c(F)cc(F)cc2F)c(C(C)(O)CC)ccc1=O` (stereo not shown) [compound 481], the “Test D control value” [1] was “H (more than 50% control value)”, the “Test B control value” (Botrytis cinerea) was “H (more than 50% control value)” and the “Test C control value” (Alternaia brassicicola) was “L (50% or less control value)”. For the same molecule, the “Test E control value” (Puccinia recondita) was “H (more than 50% control value)”, the “Test G control value” (Plasmopara viticola) was “L (50% or less control value)” and the “Test H control value” [2] was “H (more than 50% control value)”. For the same molecule, the “Test F control value” (Phytophthora infestans) was “L (50% or less control value)” and the “Test A control value” (Magnaporthe grisea) was “L (50% or less control value)”.

In the case of `CCn1c(-c2c(F)cc(F)cc2F)c(C(C)(O)CC)cc(Br)c1=O` (stereo not shown) [compound 482], the “Test D control value” [1] is reported as “H (more than 50% control value)”, the “Test B control value” (Botrytis cinerea) is reported as “H (more than 50% control value)” and the “Test C control value” (Alternaia brassicicola) is reported as “H (more than 50% control value)”. The “Test E control value” (Puccinia recondita) was “H (more than 50% control value)”, the “Test G control value” (Plasmopara viticola) was “H (more than 50% control value)” and the “Test H control value” [2] was “H (more than 50% control value)”. The “Test F control value” (Phytophthora infestans) was “L (50% or less control value)” and the “Test A control value” (Magnaporthe grisea) was “H (more than 50% control value)”.

In the case of `CCn1c(-c2c(F)cc(F)cc2F)c(C(C)(CC)OC)cc(Br)c1=O` (stereo not shown) [compound 483], the “Test D control value” [1] is reported as “H (more than 50% control value)”, the “Test B control value” (Botrytis cinerea) is reported as “H (more than 50% control value)” and the “Test C control value” (Alternaia brassicicola) is reported as “H (more than 50% control value)”. For the same molecule, the “Test E control value” (Puccinia recondita) was “H (more than 50% control value)”, the “Test G control value” (Plasmopara viticola) was “H (more than 50% control value)” and the “Test H control value” [2] was “H (more than 50% control value)”. The “Test F control value” (Phytophthora infestans) was “L (50% or less control value)” and the “Test A control value” (Magnaporthe grisea) was “H (more than 50% control value)”.

In the case of `CCOC(C)(CC)c1cc(Br)c(=O)n(CC)c1-c1c(F)cc(F)cc1F` (stereo not shown) [compound 484], the “Test D control value” [1] is reported as “H (more than 50% control value)”, the “Test B control value” (Botrytis cinerea) is reported as “H (more than 50% control value)” and the “Test C control value” (Alternaia brassicicola) is reported as “L (50% or less control value)”. For the same molecule, the “Test E control value” (Puccinia recondita) was “H (more than 50% control value)”, the “Test G control value” (Plasmopara viticola) was “H (more than 50% control value)” and the “Test H control value” [2] was “H (more than 50% control value)”. The “Test F control value” (Phytophthora infestans) was “L (50% or less control value)” and the “Test A control value” (Magnaporthe grisea) was “H (more than 50% control value)”.

`CCOC(C)(CC)c1cc(Br)c(=O)n(CC)c1-c1c(F)cc(OC)cc1F` (stereo not shown) [compound 485] was tested, and the “Test D control value” [1] was “L (50% or less control value)”, the “Test B control value” (Botrytis cinerea) was “H (more than 50% control value)” and the “Test C control value” (Alternaia brassicicola) was “H (more than 50% control value)”. The “Test E control value” (Puccinia recondita) was “H (more than 50% control value)”, the “Test G control value” (Plasmopara viticola) was “L (50% or less control value)” and the “Test H control value” [2] was “H (more than 50% control value)”. The “Test F control value” (Phytophthora infestans) was “L (50% or less control value)” and the “Test A control value” (Magnaporthe grisea) was “H (more than 50% control value)”.

`CCn1c(-c2c(F)cc(OC)cc2F)c(C(C)(CC)OC)cc(Br)c1=O` (stereo not shown) [compound 486] was tested, and the “Test D control value” [1] was “H (more than 50% control value)”, the “Test B control value” (Botrytis cinerea) was “H (more than 50% control value)” and the “Test C control value” (Alternaia brassicicola) was “H (more than 50% control value)”. The “Test E control value” (Puccinia recondita) was “H (more than 50% control value)”, the “Test G control value” (Plasmopara viticola) was “L (50% or less control value)” and the “Test H control value” [2] was “H (more than 50% control value)”. For the same molecule, the “Test F control value” (Phytophthora infestans) was “L (50% or less control value)” and the “Test A control value” (Magnaporthe grisea) was “H (more than 50% control value)”.
